One block for each molecule: values may come before it.
How the values were obtained:
[1] = test system: K562 (human chronic myelogenous leukaemia); test: MTT cytotoxicity assay, leukemic cell line K562; type: cell-based; details: Homo sapiens, K562, 72 h, three days
Excerpt: (§1) Cytotoxicity of the compounds is the major property determining their antileukemic efficacy in vivo. One of the parameters used, as the basis for cytotoxicity assays, is the metabolic activity of viable cells. For example, a microtiter assay, which uses (3-(4,5-dimethylthiazol-2-yl)-2,5-diphenyltetrazolium bromide (MTT), is widely used to quantitate cell proliferation and cytotoxicity. This assay is widely used in drug screening programs and in chemosensitivity testing. Because only metabolically active living cells reduce MTT to correspond purple formazan dye, these assays detect viable cells exclusively. The quantity of reduced MTT corresponds to the number of vital cells in the culture.
(§2) The compounds were assayed using the following leukemic cell lines: K562 (human chronic myelogenous leukaemia), HL60 (human promyelocytic leukaemia), CEM (human lymphoblastoid leukaemia), THP1 (human monocytic cell line), MV4; 11 (acute myelocytic leukemia). All cell lines were grown in RPMI medium supplemented with fetal bovine serum and L-glutamine and maintained at 37° C. in a humidified atmosphere with 5% CO2. For cytotoxicity assays, 2000-5000 cells were seeded into each well of 96 well plate, allowed to stabilize for at least 8 h and then tested compounds were added at various concentrations ranging from 100 to 0.01 μM in triplicates. After three days, MTT solution (5 mg/ml; Sigma, St. Louis, USA) was added to cells and medium was replaced with DMSO after five hours. The absorbance was measured at 620 nm by employing a microplate reader. MTT assays were repeated 3 times for each drug application and untreated cells were used as reference.

[2] = test system: HL60 (human promyelocytic leukaemia); test: MTT cytotoxicity assay, leukemic cell line HL60; type: cell-based; details: Homo sapiens, HL-60, 72 h, three days
Excerpt: as §1, §2

[3] = test system: MV4;11 (acute myelocytic leukemia); test: MTT cytotoxicity assay, leukemic cell line MV4;11; type: cell-based; details: Homo sapiens, MV4-11, 72 h, three days
Excerpt: as §1, §2

[4] = test system: THP1 (human monocytic cell line); test: MTT cytotoxicity assay, leukemic cell line THP1; type: cell-based; details: Homo sapiens, THP-1, 72 h, three days
Excerpt: as §1, §2

[5] = test system: G361 (malignant melanoma); test: MTT cytotoxicity assay, solid cancer cell line G361; type: cell-based; details: Homo sapiens, G-361, 72 h, three days
Procedure: as §2, with “following” for “following leukemic”, “G361 (malignant melanoma), MCF7 (breast adenocarcinoma), PLC/PRF/5 (liver hepatoma), PANC-1 (pancreatic carcinoma) and HCT116 (colon carcinoma).” for “K562 (human chronic myelogenous leukaemia), HL60 (human promyelocytic leukaemia), CEM (human lymphoblastoid leukaemia), THP1 (human monocytic cell line), MV4; 11 (acute myelocytic leukemia).”, “DMEM” for “RPMI”, “4000-10000” for “2000-5000”, “of a” for “of”, “16” for “8”

[6] = test system: PANC-1 (pancreatic carcinoma); test: MTT cytotoxicity assay, solid cancer cell line PANC-1; type: cell-based; details: Homo sapiens, PANC-1, 72 h, three days
Procedure: as §2, with “following” for “following leukemic”, “G361 (malignant melanoma), MCF7 (breast adenocarcinoma), PLC/PRF/5 (liver hepatoma), PANC-1 (pancreatic carcinoma) and HCT116 (colon carcinoma).” for “K562 (human chronic myelogenous leukaemia), HL60 (human promyelocytic leukaemia), CEM (human lymphoblastoid leukaemia), THP1 (human monocytic cell line), MV4; 11 (acute myelocytic leukemia).”, “DMEM” for “RPMI”, “4000-10000” for “2000-5000”, “of a” for “of”, “16” for “8”

[7] = test system: PLC/PRF/5 (liver hepatoma); test: MTT cytotoxicity assay, solid cancer cell line PLC/PRF/5; type: cell-based; details: Homo sapiens, PLC-PRF-5, 72 h, three days
Procedure: as §2, with “following” for “following leukemic”, “G361 (malignant melanoma), MCF7 (breast adenocarcinoma), PLC/PRF/5 (liver hepatoma), PANC-1 (pancreatic carcinoma) and HCT116 (colon carcinoma).” for “K562 (human chronic myelogenous leukaemia), HL60 (human promyelocytic leukaemia), CEM (human lymphoblastoid leukaemia), THP1 (human monocytic cell line), MV4; 11 (acute myelocytic leukemia).”, “DMEM” for “RPMI”, “4000-10000” for “2000-5000”, “of a” for “of”, “16” for “8”

[8] = test system: CEM (human lymphoblastoid leukaemia); test: MTT cytotoxicity assay, leukemic cell line CEM; type: cell-based; details: Homo sapiens, 72 h, three days
Excerpt: as §1, §2

CDK5/p35 = target: T1, CDK5/p35 (Homo sapiens, UniProt Q00535); test: CDK5/p35 kinase inhibition (33P-ATP, histone H1); type: biochemical; details: 0.15 μM ATP
T1 construct: purchased ProQinase GmbH
Procedure: CDK2/Cyclin E kinase was produced in Sf9 insect cells via baculoviral infection and purified on a NiNTA column (Qiagen). […] CDK5/p35 was purchased from ProQinase GmbH.
(§3) The reactions were stopped by adding 5 μL of 3% aq H3PO4. Aliquots were spotted onto P-81 phosphocellulose (Whatman), washed 3× with 0.5% aq H3PO4 and finally air-dried.

[9] = test system: MCF7 (breast adenocarcinoma); test: MTT cytotoxicity assay, solid cancer cell line MCF7; type: cell-based; details: Homo sapiens, MCF7, 72 h, three days
Procedure: as §2, with “following” for “following leukemic”, “G361 (malignant melanoma), MCF7 (breast adenocarcinoma), PLC/PRF/5 (liver hepatoma), PANC-1 (pancreatic carcinoma) and HCT116 (colon carcinoma).” for “K562 (human chronic myelogenous leukaemia), HL60 (human promyelocytic leukaemia), CEM (human lymphoblastoid leukaemia), THP1 (human monocytic cell line), MV4; 11 (acute myelocytic leukemia).”, “DMEM” for “RPMI”, “4000-10000” for “2000-5000”, “of a” for “of”, “16” for “8”

[10] = test system: HUVECs (human umbilical vein endothelial cells); test: HUVEC proliferation assay (crystal violet); type: cell-based; details: Homo sapiens, HUVEC, 72 h, read-out: Inhibition of proliferation (EC50)
Procedure: (§4) To verify that novel compounds have anti-vascularisation properties, we analyzed their influence on the proliferation and migration of HUVECs. HUVECs (human umbilical vein endothelial cells) were purchased from Promocell (Heidelberg, Germany) and cultured in endothelial cell growth medium (ECGM, Promocell, Heidelberg, Germany) containing 10% FCS (Biochrom, Berlin, Germany). Experiments were performed using cells at passage 3.
For proliferation assay, 1.5×10^3 HUVECs were cultured for 24 h. Afterwards, cells were either left untreated or treated with novel compounds for 72 h. Proliferation assay was performed using crystal violet as described previously (Koltermann et al. 2007, Cell Mol. Life Sci. 64:1715-1722).

[11] = test system: HUVECs (human umbilical vein endothelial cells); test: HUVEC migration (scratch) assay; type: cell-based; details: 16 h, read-out: Inhibition of migration (EC50)
Procedure: as §4
For migration assay, confluent HUVECs were scratched with a pipette tip and immediately treated with either starvation medium M199 (serum-free, negative control; PAN Biotech) or full endothelial cell growth medium (positive control). After 16 h, cells were fixed with 3% formaldehyde and images were taken using the TILLvisON system (Lochham, Germany) connected to an Axiovert 200 microscope (Zeiss, Germany). Evaluation of pictures was made by S.CO LifeScience (Garching, Germany). Migration was quantified as the ratio of the area covered with cells and the area of the cell free wound.

HCT116 (colon carcinoma) = test: MTT cytotoxicity assay, solid cancer cell line HCT116; type: cell-based; details: Homo sapiens, HCT-116, 72 h, three days
Procedure: as §2, with “following” for “following leukemic”, “G361 (malignant melanoma), MCF7 (breast adenocarcinoma), PLC/PRF/5 (liver hepatoma), PANC-1 (pancreatic carcinoma) and HCT116 (colon carcinoma).” for “K562 (human chronic myelogenous leukaemia), HL60 (human promyelocytic leukaemia), CEM (human lymphoblastoid leukaemia), THP1 (human monocytic cell line), MV4; 11 (acute myelocytic leukemia).”, “DMEM” for “RPMI”, “4000-10000” for “2000-5000”, “of a” for “of”, “16” for “8”

CDK2/Cyclin E = target: T2, CDK2/Cyclin E (Homo sapiens, UniProt P24941); test: CDK2/Cyclin E kinase inhibition (33P-ATP, histone H1); type: biochemical; details: 15 μM ATP
T2 construct: made in house; host or cells: Sf9 insect cells (baculovirus)
Procedure: CDK2/Cyclin E kinase was produced in Sf9 insect cells via baculoviral infection and purified on a NiNTA column (Qiagen). The kinase reactions were assayed with 1 mg/mL histone H1 in the presence of 15 μM ATP, 0.05 μCi [γ-^33P]ATP and of the test compound in a final volume of 10 μL, all in a reaction buffer (60 mM HEPES-NaOH, pH 7.5, 3 mM MgCl2, 3 mM MnCl2, 3 μM Na-orthovanadate, 1.2 mM DTT, 2.5 μg/50 μl PEG20.000). CDK5/p35 was purchased from ProQinase GmbH. The kinase reactions were assayed with 1 mg/mL histone H1 in the presence of 0.15 μM ATP, 0.05 μCi [γ-^33P]ATP and of the test compound in a final volume of 10 μL, all in a reaction buffer (60 mM HEPES-NaOH, pH 7.5, 3 mM MgCl2, 3 mM MnCl2, 3 μM Na-orthovanadate, 1.2 mM DTT, 2.5 μg/50 μl PEG20.000).
as §3

[12] = test system: breast carcinoma cell line MCF7; test: Cell cycle profile by BrdU/propidium iodide flow cytometry; type: cell-based; details: asynchronously growing MCF7, 24 h, FIG. 1
Procedure: Sub-confluent cells were treated with test compounds at different concentrations for 24 h. The cultures were pulse-labeled with […] 5-bromo-20-deoxyuridine (BrdU) for 30 min at 37° C. prior to harvesting. The cells were then washed in PBS, fixed with 70% ethanol, and denatured in 2 M HCl. Following neutralization, the cells were stained with anti-BrdU fluorescein-labeled antibodies, washed, stained with propidium iodide and analyzed by flow cytometry using a 488 nm laser

T1 sequence (Q00535 whole entry): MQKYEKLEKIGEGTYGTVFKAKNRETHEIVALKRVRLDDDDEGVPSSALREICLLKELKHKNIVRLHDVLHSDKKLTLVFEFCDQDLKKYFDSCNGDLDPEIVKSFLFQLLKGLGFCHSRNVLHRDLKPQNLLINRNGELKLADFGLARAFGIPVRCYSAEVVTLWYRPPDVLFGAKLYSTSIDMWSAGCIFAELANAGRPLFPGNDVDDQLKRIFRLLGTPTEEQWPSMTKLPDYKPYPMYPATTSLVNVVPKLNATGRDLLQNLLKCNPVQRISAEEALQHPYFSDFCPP
T1 sequence (Q15078 whole entry partner): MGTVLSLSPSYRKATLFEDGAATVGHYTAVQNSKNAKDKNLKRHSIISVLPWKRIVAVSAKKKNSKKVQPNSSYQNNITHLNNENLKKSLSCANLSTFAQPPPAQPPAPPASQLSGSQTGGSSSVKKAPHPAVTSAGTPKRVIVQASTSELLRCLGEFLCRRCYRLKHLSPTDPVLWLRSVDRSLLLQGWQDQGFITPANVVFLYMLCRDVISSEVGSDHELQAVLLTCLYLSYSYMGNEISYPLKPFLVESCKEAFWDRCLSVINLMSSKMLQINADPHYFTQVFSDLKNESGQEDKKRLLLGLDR

IC50 (CDK5/p35): 0.119 µM
Compound: CC(C)c1[nH]nc2c(NCc3ccc(-c4ccccn4)cc3)nc(N3CCNCC3)nc12 [Compound 13]
IC50 [1]: 0.02 µM
IC50 [2]: 0.02 µM
IC50 [3]: 0.04 µM
IC50 [4]: 0.03 µM
IC50 [5]: 0.02 µM
IC50 [6]: 0.06 µM
IC50 [7]: 0.05 µM
IC50 [8]: 0.01 µM
IC50 [9]: 0.02 µM
EC50 [10]: 9 nM
EC50 [11]: 26 nM
IC50 (HCT116 (colon carcinoma)): 0.03 µM

IC50 (CDK2/Cyclin E): 0.023 µM
IC50 (CDK5/p35): 0.048 µM
Compound: CC(C)c1[nH]nc2c(NCc3ccc(-c4ccccn4)cc3)nc(NC3CCCCC3N)nc12 (stereo not drawn) [Compound 65]
IC50 [1]: 0.3 µM
IC50 [2]: 0.22 µM
IC50 [3]: 0.38 µM
IC50 [4]: 0.11 µM
IC50 [5]: 0.04 µM
IC50 [6]: 0.02 µM
IC50 [7]: 0.05 µM
IC50 [8]: 0.14 µM
IC50 [9]: 0.06 µM
EC50 [10]: 5 nM
EC50 [11]: 77 nM
IC50 (HCT116 (colon carcinoma)): 0.08 µM

IC50 (CDK5/p35): 0.114 µM
Compound: CC(C)c1[nH]nc2c(NCc3ccc(-c4ccccn4)cc3)nc(N3CCSCC3)nc12 [Compound 15]
IC50 [1]: 0.59 µM
IC50 [2]: 0.6 µM
IC50 [3]: 0.87 µM
IC50 [4]: 0.31 µM
IC50 [5]: 0.42 µM
IC50 [6]: 0.34 µM
IC50 [7]: 0.2 µM
IC50 [8]: 0.23 µM
IC50 [9]: 0.53 µM
effect on the cell cycle of MCF7 [12]: potently arrested cells in S, G2 and M phases
EC50 [10]: 153 nM
IC50 (HCT116 (colon carcinoma)): 0.69 µM

Compound: CC(C)c1n[nH]c2c(NCc3ccc(-c4ccccn4)cc3)nc(S(C)(=O)=O)nc12 [Compound 7]
IC50 [1]: 0.64 µM
IC50 [2]: 0.52 µM
IC50 [3]: 1.69 µM
IC50 [4]: 1.64 µM
IC50 [5]: 0.43 µM
IC50 [6]: 1.56 µM
IC50 [7]: 0.21 µM
IC50 [8]: 0.93 µM
IC50 (CDK5/p35): 0.165 µM
IC50 [9]: 0.46 µM
EC50 [10]: 648 nM
EC50 [11]: 550 nM
IC50 (HCT116 (colon carcinoma)): 1.97 µM

IC50 (CDK5/p35): 2.14 µM
Compound: CC(C)c1[nH]nc2c(NCc3ccc(-c4ccccn4)cc3)nc(NCCN(C)C)nc12 [Compound 47]
IC50 [1]: 0.13 µM
IC50 [2]: 0.09 µM
IC50 [3]: 0.12 µM
IC50 [4]: 0.06 µM
IC50 [5]: 0.47 µM
IC50 [6]: 0.2 µM
IC50 [7]: 0.24 µM
IC50 [8]: 0.07 µM
IC50 [9]: 0.23 µM
effect on the cell cycle of MCF7 [12]: potently arrested cells in S, G2 and M phases
EC50 [10]: 181 nM
IC50 (HCT116 (colon carcinoma)): 0.34 µM

From patent publication US9957273B2, “5-substituted 7- [4-(2-pyridyl)phenylmethylamino] -3-isopropylpyrazolo4,3-D]pyrimidine derivatives, use thereof as medicaments, and pharmaceutical compositions” (USTAV EXPERIMENTALNI BOTANIKY AV CR, V.V.I., priority 2015, dated 2018)
